Laboratory results reported in patent US20240342186A1, “PYRIDINE DERIVATIVES WITH N-LINKED CYCLIC SUBSTITUENTS AS cGAS INHIBITORS” (Boehringer Ingelheim International GmbH, priority 2021, published 2024).
Where two headings read alike, the source gives them in different places.

Key:
cGAS = cGAS (Homo sapiens (Human), UniProt Q8N884); assay: Human cGAS enzyme assay (hcGAS IC50, in vitro), cGAMP formation by RapidFire MS; type: biochemical;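 note: enzyme activated by 45 bp dsDNA with GTP and ATP (30 µM each), 60 min compound pre-incubation then 90 min reaction, cGAMP relative to cyclic-di-GMP internal standard, 8-point dilutions up to 10 µM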
[1] = tested on: cellular cGAS activity in baculovirus-stimulated THP1-Dual cells (IRF dependent Lucia luciferase reporter); assay: Human cGAS cell assay: inhibition of IFN induction in virus-stimulated THP1 cells (THP1(vir) IC50); type: cell-based; details: Homo sapiens, THP1-Dual
Excerpt: (§1) 6.2 Method: Human cGAS Cell Assay and cGAMP Stimulated Counter Cell Assay (THP1(vir) IC50 and THP1(cGAMP) IC50)
(§2) THP1-Dual™ cells (InvivoGen #thpd-nfis) expressing IRF dependent Lucia luciferase reporter were used as basis for both assays. For the detection of cellular cGAS activity cells were stimulated by a baculovirus (pFastbac-1, Invitrogen, no coding insert) infection that delivers the cGAS enzyme stimulating double-stranded DNA (measurement of THP1(vir) IC50).
(§3) For the counter assay, cells were stimulated by cGAMP (SigmaAldrich #SML1232) to activate the identical pathway independent and directly downstream of cGAS (measurement of THP1(cGAMP) IC50). Pathway activity was monitored by measuring the Lucia luciferase activity induced by either DNA stimulated cGAS enzyme activity (measurement of THP1(vir) IC50) or by cGAMP directly (measurement of THP1(cGAMP) IC50, counter assay).
(§4) Compounds were delivered in 10 mM DMSO solution, serially diluted and transferred to the 384 well assay plate (Greiner #781201) using an Echo acoustic dispenser. Typically, 8 concentrations were used with the highest concentration at 10 μM in the final assay volume followed by ˜1:5 dilution steps. DMSO concentration was set to 1% in the final assay volume. The 384 well assay plate contained 21 test compounds (column 1-22), and DMSO in column 23 and 24.
(§5) Cells, cultivated according to manufacturer conditions, were harvested by centrifugation at 300 g/10 min and were then resuspended and diluted to 1.66E5 cells/ml in fresh cell culture medium (RPMI 1640 (Gibco #A10491-01), 10% FCS (Gibco #10500), 1× GlutaMax (Gibco #35050-061), 1× Pen/Strep solution (Gibco #15140-122), 100 μg/ml Normocin (InvivoGen #ant-nr), 100 μg/ml Zeocin (InvivoGen #ant-zn), 10 μg/ml Blasticidin S (Life Technologies #A11139-03)). The baculovirus solution was then added 1:200 (have varied according to virus batch) to the cells (measurement of THP1(vir) IC50).
(§6) 30 μL of the cell/virus-mix were added to each well of the compound plate from column 1-23 via MultiDrop Combi dispenser (5000 cells/well). In column 24, 30 μl/5000 cells/well without virus were added as a low control.
(§7) The plates were then incubated for 18 h at 37° C. in a humidified incubator.
(§8) Following that, 15 μl of QuantiLuc detection reagent (InvivoGen #rep-qlcg5) were added to each well using a MultiDrop Combi. Measurement was done immediately after the addition using an EnVision reader (US-luminescence read-mode).
(§9) For data evaluation and calculation, the measurement of the low control was set as 0% control and the measurement of the high control was set as 100% control. The IC50 values were calculated using the standard 4 parameter logistic regression formula. Calculation: [y=(a−d)/(1+(x/c)^b)+d], a=low value, d=high value; x=conc M; c=IC50 M; b=slope

[2] = tested on: cGAMP-stimulated THP1-Dual cells (pathway directly downstream of cGAS); assay: cGAMP stimulated counter cell assay: inhibition of IFN induction in cGAMP-stimulated THP1 cells (THP1(cGAMP) IC50); type: cell-based, human; details: for IC50: Homo sapiens, THP1-Dual, read-out: THP1(cGAMP) IC50 (converted); for Ratio THP1(cGAMP) IC50 / THP1(vir) IC50: selectivity for cGAS inhibition
Excerpt: as §1, §2, §3, §4, §5, §6, §7, §8, §9

[3] = tested on: cellular cGAS activity in dsDNA-stimulated human whole blood; assay: Human whole blood assay (hWB IC50): IFNα2α production after dsDNA transfection; type: cell-based
Description: 6.3 Method: Human Whole Blood Assay (Human WB IC50)
For the detection of cellular cGAS activity human whole blood was stimulated by transfection with double stranded DNA. Pathway activity was monitored by measuring the IFNα2α production.
Compounds were delivered as 10 mM DMSO solution and serially diluted and transferred to the 96-well cell culture plate (Corning #3595), prefilled with 20 μl OptiMEM (Gibco, #11058-021) in each well, using an Echo acoustic dispenser. Typically, 8 concentrations were used with the highest concentration at 10 µM in the final assay volume followed by ˜1:5 dilution steps. DMSO concentration was set to 0.1% in the final assay volume. The 96-well assay plate contained 10 test compounds, and DMSO in control wells.
Collection of human whole blood from 3 or more healthy donors (male or female, no medication for 7 days except contraceptive and thyroxine) as Na-Citrate blood (e.g. 3.8% in Monovettes from Sarstedt) was conducted in parallel. Whole blood was kept at room temperature for a maximum of 3 hours after collection until use in the assay.
160 μl of the whole blood samples was transferred to each well of the 96-well assay plates filled with compound/OptiMEM. All assay plates were prepared as duplicates with blood from different donors. Blood plates were kept at room temperature for 60 minutes and continuous shaking with 450 rpm, covered with the lid, but not sealed.
20 μl OptiMEM and 9.6:1 Fugene was added to all low control wells.
After covering assay plates with aera seals and the lid, blood plates were kept at room temperature for 30 minutes and continuous shaking with 450 rpm, followed by an overnight incubation of 22 h at 37° C. in the incubator, without shaking.
For the detection of IFNα-2α in human plasma, the biotinylated capture antibody (Antibody set IFNA2, Meso Scale Diagnostics #B21VH-3, including coating and capture antibody) was diluted 1:17.5 in Diluent 100 (Meso Scale Diagnostics #R^50AA-4), according to the manufacturer's directions. U-Plex MSD GOLD 96-well Small Spot Strepavidin SECTOR Plates (Meso Scale Diagnostics #L45SA-5) were coated with 25 μl diluted capture antibody. Coated plates were incubated for 60 min at room temperature under continuous shaking at 700 rpm. MSD IFNα-2α plates were washed three times with 150 μl wash buffer (1x HBSS, 0.05% Tween).
After blocking the plates with 100 μl block solution/well (1x HBSS with 0.2% Tween, 2% BSA) for 60 min at room temperature and continuous shaking at 700 rpm, plates were emptied as dry as possible by dumping just before continuing with the human plasma.
Whole Blood assay plates were centrifuged at 1600 rpm for 10 minutes. 25 μl of supernatant was transferred with a pipetting robot from each whole blood plate to the corresponding IFNα-2α plate. Plates were sealed with microplate seals and kept at room temperature again under continuous shaking at 700 rpm for two hours.
Next MSD IFNα-2α plates were washed three times with 150 μl wash buffer (1×HBSS, 0.05% Tween), before adding 25 μl MSD SULFO-TAG IFNα-2α Antibody solution (1:100 diluted in Diluent 3 (Meso Scale Diagnostics #R50AP-2) to each well of the plates.
Afterwards plates were sealed with microplate seals and kept at room temperature again under continuous shaking at 700 rpm for two hours. Finally, MSD IFNα-2α plates were washed three times with 150 μl wash buffer (1×HBSS, 0.05% Tween). 150 μl 2× Read buffer was added to each well and plates were immediately measured with the MSD Sector S600 Reader using the vendor barcode.
For data evaluation and calculation, % control calculation of each well was based on the mean of high (DNA stimulated control) and mean of low (unstimulated control) controls by using the following formula:
[counts(sample)−counts(low))/(counts(high)−counts(low))]*100
The IC50 values were calculated using the standard 4 parameter logistic regression formula. Calculation: [y=(a−d)/(1+(x/c)^b)+d], a=low value, d=high value; x=conc M; c=IC50 M; b=slope

[4] = biochemical (in vitro) cGAS inhibition
[5] = inhibition of IFN induction in virus-stimulated THP1 cells, read-out: THP1(vir) IC50
[6] = inhibition of IFN induction in cGAMP-stimulated THP1 cells
[7] = inhibition of IFN induction in dsDNA-stimulated human whole blood
[8] = biochemical (in vitro), human cGAS, 45 bp dsDNA, GTP/ATP

Sequence of cGAS (Q8N884 whole entry): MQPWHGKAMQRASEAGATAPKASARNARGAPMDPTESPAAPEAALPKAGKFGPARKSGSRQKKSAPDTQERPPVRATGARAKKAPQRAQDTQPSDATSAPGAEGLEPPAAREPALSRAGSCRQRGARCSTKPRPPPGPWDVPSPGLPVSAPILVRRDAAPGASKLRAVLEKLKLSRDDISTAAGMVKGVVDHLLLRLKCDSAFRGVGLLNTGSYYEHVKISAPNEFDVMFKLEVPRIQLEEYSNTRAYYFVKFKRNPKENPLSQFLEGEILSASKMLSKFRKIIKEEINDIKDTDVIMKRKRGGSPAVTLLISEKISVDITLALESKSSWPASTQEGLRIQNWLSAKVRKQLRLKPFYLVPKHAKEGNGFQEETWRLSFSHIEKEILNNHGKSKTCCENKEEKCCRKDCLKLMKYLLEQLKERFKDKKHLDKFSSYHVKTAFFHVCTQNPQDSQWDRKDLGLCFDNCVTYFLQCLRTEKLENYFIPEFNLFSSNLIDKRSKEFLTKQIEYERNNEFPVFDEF

SMILES | IC50 (cGAS; [4]) [nM] | IC50 [1, 5] [nM] | IC50 [2, 6] [nM] | Ratio THP1(cGAMP) IC50 / THP1(vir) IC50 [2] | IC50 [3, 7] [nM] | IC50 (cGAS; [8]) [nM] | IC50 ([1]; read-out: THP1(vir) IC50, virus-stimulated THP1 cells, IFN induction) [nM] | IC50 ([2]; cGAMP-stimulated THP1 cells, counter assay) [nM] | IC50 ([3]; dsDNA-stimulated human whole blood, IFN induction) [nM]
C#Cc1cnc(O[C@H]2C[C@@H](C(=O)O)N(c3nc(C)nc4c3oc3cc(F)ccc34)C2)c(N2CCOC3(COC3)[C@@H]2C)c1 [Example 2.08] | 3 | < 5 | 18800 | 3490 | 6 | – | – | – | –
CC1(C#N)CN(c2cc(Cl)cnc2O[C@H]2C[C@@H](C(=O)O)N(c3nc(C(F)(F)F)nc4c3oc3ccccc34)C2)CCO1 (some centres unmarked) [Example 1.03] | 7 | 399 | 15100 | 38 | 8450 | – | – | – | –
C[C@@H]1N(c2cc(-c3ccc(OC4CCOCC4)nc3)cnc2O[C@H]2C[C@@H](C(=O)O)N(c3nc(C(F)(F)F)nc4c3oc3ccccc34)C2)CCOC12COC2 [Example 3.29] | 66 | 591 | 6540 | 11 | 1570 | – | – | – | –
CNc1cncc(-c2cnc(O[C@H]3C[C@@H](C(=O)O)N(c4nc(C(F)(F)F)nc5c4oc4ccccc45)C3)c(N3CCOC4(COC4)[C@@H]3C)c2)c1 [Example 3.18] | 3 | 7 | 4760 | 645 | 44 | – | – | – | –
C[C@@H]1N(c2cc(-c3cnn(C(F)F)c3)cnc2O[C@H]2C[C@@H](C(=O)O)N(c3nc(C(F)(F)F)nc4c3oc3ccccc34)C2)CCOC12COC2 [Example 3.31] | 11 | 3 | 10900 | 4120 | 28 | – | – | – | –
C[C@@H]1N(c2cc(Br)cnc2O[C@H]2C[C@@H](C(=O)O)N(c3nc(C(F)(F)F)nc4c3oc3ccccc34)C2)CCOC12COC2 [Example 1.10, (2S,4S)-4-({5-bromo-3-[(9S)-9-methyl-2,5-dioxa-8-azaspiro[3.5]nonan-8-yl]pyridin-2-yl}oxy)-1-[4-(trifluoromethyl)-8-oxa-3,5-diazatricyclo[7.4.0.0^2,7]trideca-1(9),2(7),3,5,10,12-hexaen-6-yl]pyrrolidine-2-carboxylic acid] | – | 91 | 16100 | 178 | 33 | 5 | – | – | –
COc1ncccc1-c1cnc(O[C@H]2C[C@@H](C(=O)O)N(c3nc(C(F)(F)F)nc4c3oc3ccccc34)C2)c(N2CCOC3(COC3)[C@@H]2C)c1 [Example 3.14] | 11 | 10 | 7830 | 822 | 26 | – | – | – | –
C[C@@H]1N(c2cc(-c3cnn(C)n3)cnc2O[C@H]2C[C@@H](C(=O)O)N(c3nc(C(F)(F)F)nc4c3oc3ccccc34)C2)CCOC12COC2 [Example 7.05] | 9 | 10 | 13200 | 1292 | 35 | – | – | – | –
COC(=O)[C@@H]1C[C@H](Oc2ncc(Br)cc2N2CCOC3(COC3)[C@@H]2C)CN1c1nc(C(F)(F)F)nc2c1oc1ccccc12 [Example P02] | – | – | – | – | – | > 9950 | 444 | 17100 | 5330
Cc1cnc(-c2cnc(O[C@H]3C[C@@H](C(=O)O)N(c4nc(C(F)(F)F)nc5c4oc4ccccc45)C3)c(N3CCOC4(COC4)[C@@H]3C)c2)cn1 [Example 7.04] | 12 | 2 | > 10000 | 4084 | 22 | – | – | – | –
C[C@H]1COCCN1c1cc(-c2ccncc2F)cnc1O[C@H]1C[C@@H](C(=O)O)N(c2nc(C(F)(F)F)nc3c2oc2ccccc23)C1 [Example 3.03] | 7 | 899 | 12800 | 14 | 2120 | – | – | – | –
C[C@@H]1N(c2cc(-c3cccc(N(C)C)c3)cnc2O[C@H]2C[C@@H](C(=O)O)N(c3nc(C(F)(F)F)nc4c3oc3ccccc34)C2)CCOC12COC2 [Example 3.17] | 20 | 11 | 16800 | 1542 | 43 | – | – | – | –
